# From patent US6603023B2 (priority 1996, dated 2003)
# Structures can show the parent of a compound that is named as a salt. Where two headings read alike, the source gives them in different places.
# Experiments:
# B16 Melanoma [1] = type: in vivo, B6D2F1 mice
# Description: Body weight was determined at 0, 2, 4, 6, 8, 10 and 12 days. […] Injections were started on day 1. […] Body weight was determined at 0, 2, 4, 6, 8, 10 and 12 days. […] Injections were started on day 1.
# MCF-7/Adr = experiment: cells; type: cell-based, human; conditions: Table 1C
# Description: Cultures were fixed with trichloroacetic acid and then stained for 30 min with 0.4% suforhodamine B dissolved in 1% acetic acid. Unbound dye was removed by acetic acid washes, and the protein-bound dye was extracted with an unbuffered Tris base (tris(hydroxy-methyl)aminomethane) for determination of absorbance at 570 nm in a 96-well microtiter plate reader. The experiments were carried out in duplicate. Each run entailed six to seven concentrations of the tested drugs.
# B16 Melanoma [2] = type: in vivo, B6D2F1 mice; remark: listed apart in the source
# [3] = tested on: human ovarian adenocarcinoma SK-OV-3; conditions: 0.6 mg/kg i.p. Q2Dx5 from day 9
# [4] = tested on: DC-3F hamster lung fibroblast cell line; experiment: SRB cytotoxicity, DC-3F; type: cell-based
# In short: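 Cellular protein content measured with sulforhodamine B after trichloroacetic acid fixation, read at 570 nm. Each duplicate run used six to seven concentrations, analysed by the median-effect method. Cells were cultured at 37 °C, 5% CO2 in RPMI 1640-10% FBS, and drug-resistant lines were maintained with their selecting agent.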
# P388/Adr = experiment: cells; type: cell-based, murine; conditions: Table 1C
# Description: The drug-resistant cell lines were continuously cultured in the presence of the selecting agent, AD, DX, VBL or VM to maintain the drug resistant phenotypes. […] All cells were cultured in RPMI 1640-10% FBS at 37° C. 5% CO2 (see below).
# The cells were cultured at an initial density of 5×10^4 cells/mL. They were maintained in a 5% CO2-humidified atmosphere at 37° C. in RPMI-1640 medium (GIBCO-BRL, Gaithersburg, Md.) containing penicillin (100 U/mL), streptomycin ([…]) (GIBCO-BRL) and 10% heat inactivate fetal bovine serum. Culture for cell suspension (such as for CCRF-CEM, P388 and sublines), were performed by the XTT-microculture tetrazonium method (Scudiero, D. A. et al., Cancer Res. 1988, 48, 4827-4833) in duplicate in 96-well microtiter plates.
# 2′,3′-Bis(methoxy-4-nitro-5-sufophenyl)-5-[(phenylamino)carbonyl]2H-tetrazolium hyudroxide (XTT) was prepared at 1 mg/mL in prewarmed (37° C.) medium without serum. Phenazine methosulfate (PMS) and fresh XTT were mixed together to obtain 0.025 mM PMS-XTT solution (25 μL of the stock 5 mM PMS was added per 5 mL of 1 mg/mL XTT). Following a 72 h incubation, 50 μL of the assay aliquots were added to each well of the cell culture. After incubation at 37° C. for 4 h, absorbance at 450 nm and 630 nm was measured with a microplate reader (EL340, Bio-Tek Instruments, Inc., Winooski, Vt.).
# [5] = tested on: Human CCRF-CEM/VBL Xenograft; experiment: CCRF-CEM/VBL xenograft in scid mice; type: in vivo, CB-17 scid mice
# [6] = 0.4 mg/kg QD × 6 from day 1, day 7
# [7] = 0.8 mg/kg QD × 5 from day 1, day 9
# [8] = 0.4 mg/kg QD × 6 from day 1, day 5
# [9] = 0.4 mg/kg QD × 6 from day 1, day 9
# [10] = 0.4 mg/kg QD × 6 from day 1, day 11
# [11] = 0.8 mg/kg QD × 5 from day 1, day 5
# [12] = 0.8 mg/kg QD × 5 from day 1, day 7
# [13] = 0.8 mg/kg QD × 5 from day 1, day 11
# [14] = dose 0.7 i.p. QD d7-10,14,15, day 12
# [15] = dose 0.7 i.p. QD d7-10,14,15, day 17
# [16] = dose 0.7 i.p. QD d7-10,14,15, day 22
# [17] = dose 1.0 i.p. QD d7-10,14,15, day 12
# [18] = dose 1.0 i.p. QD d7-10,14,15, day 17
# [19] = dose 1.0 i.p. QD d7-10,14,15, day 22
# [20] = dose 0.2 i.p. QD d7-10,14,15, day 12
# [21] = dose 0.2 i.p. QD d7-10,14,15, day 17
# [22] = dose 0.2 i.p. QD d7-10,14,15, day 22
# [23] = dose 0.4 i.p. QD d7-10,14,15, day 12
# [24] = dose 0.4 i.p. QD d7-10,14,15, day 17
# [25] = dose 0.4 i.p. QD d7-10,14,15, day 22
smiles,measurement,setting,value
"C/C(=C\c1csc(C)n1)[C@@H]1C[C@@H]2O[C@]2(C)CCC[C@H](C)[C@H](O)[C@@H](C)C(=O)C(C)(C)[C@@H](O)CC(=O)O1 [Epothilone B, epothilone B]",Average Tumor Volume (T/C),B16 Melanoma [1]; [6],1.07
same,# Mice Died,B16 Melanoma [1]; 0.8 mg/kg QD × 5 from day 1,5/8
same,Average Tumor Volume (T/C),B16 Melanoma [1]; [7],0.46
same,Therapeutic effect Rank Order,"B16 Melanoma [1]; B16 Melanoma, i.p.",dEpoB > Taxol ® >> EpoB
same,folds of resistance (IC50 ratio vs parent cell line),MCF-7/Adr; MCF-7/Adr vs MCF-7,(5.4x)
same,IC50,"MCF-7/Adr; SRB, 72 h, read-out: IC50",2.7 nM
same,# Mice Died,B16 Melanoma [2]; 0.4 mg/kg QD × 6 from day 1,1/8
same,Average weight change,"B16 Melanoma [2]; 0.4 mg/kg QD × 6 from day 1, day 3",-0.2 g
same,Average Tumor Volume (T/C),B16 Melanoma [2]; [8],1.08
same,Average weight change,B16 Melanoma [2]; [8],-0.6 g
same,Average weight change,B16 Melanoma [2]; [6],-1.1 g
same,Average Tumor Volume (T/C),B16 Melanoma [2]; [9],1.27
same,Average weight change,B16 Melanoma [2]; [9],-3.4 g
same,Average Tumor Volume (T/C),B16 Melanoma [2]; [10],1.07
same,Average weight change,B16 Melanoma [2]; [10],-3.9 g
same,mice died of toxicity,B16 Melanoma [2]; 0.4 mg/kg QDx6 from day 1 (FIG. 44),1 of 8
same,Average weight change,"B16 Melanoma [2]; 0.8 mg/kg QD × 5 from day 1, day 3",0 g
same,Average Tumor Volume (T/C),B16 Melanoma [2]; [11],0.57
same,Average weight change,B16 Melanoma [2]; [11],-0.8 g
same,Average Tumor Volume (T/C),B16 Melanoma [2]; [12],0.89
same,Average weight change,B16 Melanoma [2]; [12],-3.1 g
same,Average weight change,B16 Melanoma [2]; [7],-4.7 g
same,Average Tumor Volume (T/C),B16 Melanoma [2]; [13],0.21
same,Average weight change,B16 Melanoma [2]; [13],-4.7 g
same,mice died,B16 Melanoma [2]; 0.8 mg/kg QDx5 from day 1 (FIG. 44),5 of 8
same,Toxicity Death,[3],0/6
same,Tumor Disapp.,[3],0/6
same,Average Body Weight Change,[3]; day 13,-0.9 g
same,Average Body Weight Change,[3]; day 15,-0.5 g
same,Average Tumor Size (T/C),[3]; day 15,0.75
same,Average Body Weight Change,[3]; day 17,-3.3 g
same,Average Tumor Size (T/C),[3]; day 17,0.69
same,Average Body Weight Change,[3]; day 19,-3.4 g
same,Average Tumor Size (T/C),[3]; day 19,0.88
same,Average Tumor Size (T/C),[3]; day 21,0.77
same,IC50,"[4]; Table 1C, SRB, 72 h, read-out: IC50",0.6 nM
same,folds of resistance (IC50 ratio vs parent cell line),P388/Adr; P388/Adr vs P388/O,(5.5x)
same,IC50,"P388/Adr; XTT, 72 h, read-out: IC50",1.6 nM
same,mice died of drug toxicity,"[5]; Epo B dose 1.0 i.p., 7 mice, day 17",^6.One mouse died of drug toxicity on day 17.
same,Average weight change,"[5]; dose 0.7 i.p. QD d7-10,14,15, day 7",+0.1
same,Average tumor volume (control = 1.00),[5]; [14],0.32
same,Average weight change,[5]; [14],−0.7
same,Average tumor volume (control = 1.00),[5]; [15],0.40
same,Average weight change,[5]; [15],−1.0
same,Average tumor volume (control = 1.00),[5]; [16],0.33
same,Average weight change,[5]; [16],−0.2
same,Average weight change,"[5]; dose 1.0 i.p. QD d7-10,14,15, day 7",−0.2
same,Average tumor volume (control = 1.00),[5]; [17],0.41
same,Average weight change,[5]; [17],−1.3
same,Average tumor volume (control = 1.00),[5]; [18],0.27
same,Average weight change,[5]; [18],−2.1
same,Average tumor volume (control = 1.00),[5]; [19],0.31
same,Average weight change,[5]; [19],−0.5
"CC[C@]1(O)C[C@@H]2CN(CCc3c([nH]c4ccccc34)[C@@](C(=O)OC)(c3cc4c(cc3OC)N(C)[C@H]3[C@@](O)(C(=O)OC)[C@H](OC(C)=O)[C@]5(CC)C=CCN6CC[C@]43[C@@H]65)C2)C1 [Vinblastine, Vinblastine sulfate]",IC50,"[4]; Mesocricetus auratus, DC3F, Table 3",2.65 nM
same,Average weight change,"[5]; dose 0.2 i.p. QD d7-10,14,15, day 7",−0.3
same,Average tumor volume (control = 1.00),[5]; [20],0.86
same,Average weight change,[5]; [20],−0.8
same,Average tumor volume (control = 1.00),[5]; [21],0.66
same,Average weight change,[5]; [21],−1.4
same,Average tumor volume (control = 1.00),[5]; [22],0.67
same,Average weight change,[5]; [22],−0.3
same,Average weight change,"[5]; dose 0.4 i.p. QD d7-10,14,15, day 7",0
same,Average tumor volume (control = 1.00),[5]; [23],1.02
same,Average weight change,[5]; [23],−1.2
same,Average tumor volume (control = 1.00),[5]; [24],0.57
same,Average weight change,[5]; [24],−1.8
same,Average tumor volume (control = 1.00),[5]; [25],0.62
same,Average weight change,[5]; [25],−0.5
